This note sets out measurements from patent US20210395239A1 (Hoffmann-La Roche Inc., priority 2018, published 2021).

pIC50: −log10 of the molar value.

The target of this test is T1, human TLR7 (Homo sapiens, UniProt Q9NYK1).
T1 construct: host or cells: HEK293 (HEK-Blue hTLR7)
T1 sequence (Q9NYK1 27-1049): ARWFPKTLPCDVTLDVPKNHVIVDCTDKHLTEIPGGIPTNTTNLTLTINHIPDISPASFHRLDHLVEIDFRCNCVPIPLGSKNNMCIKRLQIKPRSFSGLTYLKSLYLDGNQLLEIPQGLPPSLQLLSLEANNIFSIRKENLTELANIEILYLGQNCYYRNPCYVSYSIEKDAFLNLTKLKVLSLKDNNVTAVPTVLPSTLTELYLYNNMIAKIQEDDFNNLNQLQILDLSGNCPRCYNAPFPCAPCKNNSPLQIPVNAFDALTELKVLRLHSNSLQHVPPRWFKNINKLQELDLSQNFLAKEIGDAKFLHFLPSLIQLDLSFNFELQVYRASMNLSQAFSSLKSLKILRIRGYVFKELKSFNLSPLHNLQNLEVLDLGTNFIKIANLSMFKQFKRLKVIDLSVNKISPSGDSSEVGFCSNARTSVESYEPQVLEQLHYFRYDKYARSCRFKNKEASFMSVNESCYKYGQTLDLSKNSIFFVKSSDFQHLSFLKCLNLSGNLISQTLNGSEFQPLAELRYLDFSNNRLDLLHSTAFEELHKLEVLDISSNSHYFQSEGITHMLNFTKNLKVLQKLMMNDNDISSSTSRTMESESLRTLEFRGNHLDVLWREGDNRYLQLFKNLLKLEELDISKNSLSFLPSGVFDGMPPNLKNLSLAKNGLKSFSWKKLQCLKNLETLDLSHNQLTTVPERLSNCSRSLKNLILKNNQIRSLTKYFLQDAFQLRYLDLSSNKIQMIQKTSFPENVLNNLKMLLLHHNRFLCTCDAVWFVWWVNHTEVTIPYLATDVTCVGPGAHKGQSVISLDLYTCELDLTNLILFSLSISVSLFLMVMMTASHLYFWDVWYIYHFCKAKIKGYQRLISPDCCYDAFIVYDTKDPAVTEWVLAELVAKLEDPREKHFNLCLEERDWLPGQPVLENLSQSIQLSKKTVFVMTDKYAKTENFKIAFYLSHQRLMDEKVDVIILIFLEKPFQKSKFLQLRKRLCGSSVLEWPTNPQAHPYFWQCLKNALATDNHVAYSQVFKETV
In words: HEK293-Blue-hTLR-7 cells assay (SEAP reporter, R848 stimulation). It is filed as cell-based. As to conditions: HEK293-Blue-hTLR7 cells, R848, 20 hrs; read-out: HEK/hTLR7 IC50. In outline: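 HEK293-Blue-hTLR7 cells (NF-κB/AP-1-driven SEAP reporter) were stimulated with R848 alongside serially diluted compound at 1% final DMSO for 20 h at 37 °C. Supernatant SEAP was then developed with QUANTI-Blue for 2 h at 37 °C and absorbance read at 620–655 nm; antagonism is measured as reduced reporter signal.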
On to `Cc1cc(N2CCN(C[C@H]3CN(c4ccc(C#N)c5ncccc45)C[C@@H](C)O3)CC2)nc(N2C[C@@H](N)[C@@H](F)C2)n1` [Example 55, 5-[(2S,6R)-2-[[4-[2-[(3R,4S)-3-amino-4-fluoro-pyrrolidin-1-yl]-6-methyl-pyrimidin-4-yl]piperazin-1-yl]methyl]-6-methyl-morpholin-4-yl]quinoline-8-carbonitrile], for which the pIC50 was 7.85.
The result for `C[C@@H]1CN(c2ccc(C#N)n3ncc(F)c23)C[C@H](CN2CCN(c3ccc([C@@H]4CNCCO4)cc3)CC2)O1` [Example 177, 3-fluoro-4-[(2R,6S)-2-methyl-6-[[4-[4-[(2R)-morpholin-2-yl]phenyl]piperazin-1-yl]methyl]morpholin-4-yl]pyrazolo[1,5-a]pyridine-7-carbonitrile] reads 7.80; that for `C[C@@H]1CN(c2ccc(C#N)c3ncccc23)C[C@H](CN2CCN(c3ccnc(N4CCNCC(O)C4)n3)CC2)O1` (stereo partly drawn) [Example 25, 5-[(2S,6R)-2-[[4-[2-(6-hydroxy-1,4-diazepan-1-yl)pyrimidin-4-yl]piperazin-1-yl]methyl]-6-methyl-morpholin-4-yl]quinoline-8-carbonitrile], 7.59; that for `C[C@@H]1CN(c2ccc(C#N)c3ncccc23)C[C@H](CN2CCN(c3cccc(C4CNCCO4)c3)CC2)O1` (stereo partly drawn) [Example 62, 5-[(2R,6S)-2-methyl-6-[[4-(3-morpholin-2-ylphenyl)piperazin-1-yl]methyl]-morpholin-4-yl]quinoline-8-carbonitrile], 7.74.
The result for `COC1CN(c2ccc(N3CCN(C[C@H]4CN(c5ccc(C#N)c6ncccc56)C[C@@H](C)O4)CC3)cn2)CC1N` (stereo partly drawn) [Example 43, 5-[(2S,6R)-2-[[4-[6-(3-amino-4-methoxy-pyrrolidin-1-yl)-3-pyridyl]piperazin-1-yl]methyl]-6-methyl-morpholin-4-yl]quinoline-8-carbonitrile] reads 7.66; that for `C[C@@H]1CN(c2ccc(C#N)c3ncccc23)C[C@H](CN2CCN(c3ccnc(N4CCN(C(=O)CN(C)C)CC4)n3)CC2)O1` [Example 32, 5-[(2S,6R)-2-[[4-[2-[4-[2-(dimethylamino)acetyl]piperazin-1-yl]pyrimidin-4-yl]piperazin-1-yl]methyl]-6-methyl-morpholin-4-yl]quinoline-8-carbonitrile], 8.22; that for `C[C@@H]1CN(c2cc(=O)n(C)c3ncccc23)C[C@H](CN2CC(c3ccc(N4CC5(CNCCO5)C4)cc3)C2)O1` [Example 173, 1-methyl-4-[(2R,6S)-2-methyl-6-[[3-[4-(5-oxa-2,8-diazaspiro[3.5]nonan-2-yl)phenyl]azetidin-1-yl]methyl]morpholin-4-yl]-1,8-naphthyridin-2-one], 7.54.
The result for `Cc1cc(N2CCN(C[C@H]3CN(c4ccc(C#N)c5ncccc45)C[C@@H](C)O3)CC2)nc(N2CCNCC(O)C2)n1` (stereo partly drawn) [Example 66, 5-[(2S,6R)-2-[[4-[2-(6-hydroxy-1,4-diazepan-1-yl)-6-methyl-pyrimidin-4-yl]piperazin-1-yl]methyl]-6-methyl-morpholin-4-yl]quinoline-8-carbonitrile] reads 7.77.
With `CO[C@H]1CN(c2cccc(N3CCN(C[C@H]4CN(c5ccc(C#N)c6ncccc56)C[C@@H](C)O4)CC3)n2)C[C@H]1N` [Example 42, 5-[(2S,6R)-2-[[4-[6-[(3R,4S)-3-amino-4-methoxy-pyrrolidin-1-yl]-2-pyridyl]piperazin-1-yl]methyl]-6-methyl-morpholin-4-yl]quinoline-8-carbonitrile], the pIC50 was 7.64.
The result for `CO[C@H]1CN(c2nccc(N3CCN(C[C@H]4CN(c5ccc(C#N)c6ncccc56)C[C@@H](C)O4)CC3)n2)C[C@@H]1N` [Example 26, 5-[(2S,6R)-2-[[4-[2-trans-(3-amino-4-methoxy-pyrrolidin-1-yl)pyrimidin-4-yl]piperazin-1-yl]methyl]-6-methyl-morpholin-4-yl]quinoline-8-carbonitrile] reads 8.10.
As for `C[C@@H]1CN(c2ccc(C#N)c3ncccc23)C[C@H](CN2CCN(c3ccc(N4CCNCC4)nc3)CC2)O1` [Example 13, 5-[(2R,6S)-2-methyl-6-[[4-(6-piperazin-1-yl-3-pyridyl)piperazin-1-yl]methyl]morpholin-4-yl]quinoline-8-carbonitrile], the pIC50 is 7.74.
The result for `C[C@@H]1CN(c2cc(=O)n(C)c3ncccc23)C[C@H](CN2CC(c3ccc(N4CC(F)[C@H](N)C4)cc3)C2)O1` (stereo in doubt) [Example 174, 4-[(2S,6R)-2-[[3-[4-[(3R,4R)-3-amino-4-fluoro-pyrrolidin-1-yl]phenyl]azetidin-1-yl]methyl]-6-methyl-morpholin-4-yl]-1-methyl-1,8-naphthyridin-2-one] reads 7.33.
The result for `C[C@@H]1CN(c2ccc(C#N)n3ncc(F)c23)C[C@H](CN2CCN(c3ccc(N4CC5(CNCCO5)C4)nc3)CC2)O1` [Example 169, 3-fluoro-4-[(2R,6S)-2-methyl-6-[[4-[6-(5-oxa-2,8-diazaspiro[3.5]nonan-2-yl)-3-pyridyl]piperazin-1-yl]methyl]morpholin-4-yl]pyrazolo[1,5-a]pyridine-7-carbonitrile] reads 8.05; that for `C[C@@H]1CN(c2ccc(C#N)n3ncc(F)c23)C[C@H](CN2CCN(c3ccc(N4CC[C@@H](N)[C@H](F)C4)nc3)CC2)O1` [Example 175, 4-[(2S,6R)-2-[[4-[6-[(3R,4R)-4-amino-3-fluoro-1-piperidyl]-3-pyridyl]piperazin-1-yl]methyl]-6-methyl-morpholin-4-yl]-3-fluoro-pyrazolo[1,5-a]pyridine-7-carbonitrile], 8.00.
The result for `CO[C@H]1CN(c2nc(C)cc(N3CCN(C[C@H]4CN(c5ccc(C#N)c6ncccc56)C[C@@H](C)O4)CC3)n2)CC1N` (relative stereo) [Example 59, 5-[(2R,6S)-2-methyl-6-[[4-[6-methyl-2-[trans-3-amino-4-methoxy-pyrrolidin-1-yl]pyrimidin-4-yl]piperazin-1-yl]methyl]morpholin-4-yl]quinoline-8-carbonitrile] reads 7.96; that for `COC1CNC[C@H]1Nc1cccc(N2CCN(C[C@H]3CN(c4ccc(C#N)c5ncccc45)C[C@@H](C)O3)CC2)n1` (stereo in doubt) [Example 39, 5-[(2S,6R)-2-[[4-[6-[[(3R,4R)-4-methoxypyrrolidin-3-yl]amino]-2-pyridyl]piperazin-1-yl]methyl]-6-methyl-morpholin-4-yl]quinoline-8-carbonitrile], 7.29.
For the compound `C[C@@H]1CN(c2ccc(C#N)c3ncccc23)C[C@H](CN2CCN(c3nccc(N4CCNCC4)n3)CC2)O1` [Example 14, 5-[(2R,6S)-2-methyl-6-[[4-(4-piperazin-1-ylpyrimidin-2-yl)piperazin-1-yl]methyl]morpholin-4-yl]quinoline-8-carbonitrile], the pIC50 is 8.22.
The result for `C[C@@H]1CN(c2ccc(C#N)c3ncccc23)C[C@H](CN2CCN(c3cc(N4CCNCC4)ccn3)CC2)O1` [Example 9, 5-[(2R,6S)-2-methyl-6-[[4-(4-piperazin-1-yl-2-pyridyl)piperazin-1-yl]methyl]morpholin-4-yl]quinoline-8-carbonitrile] reads 7.72.
